The numbers were not newly measured in publication PMC8760190 (Molecular Imaging and Biology, 2021), which cites them from elsewhere.

For the data set the following is noted: 90 min after injection, rats and mice.

Structures are written as SMILES.

Consider `CCN(CC)C(=O)Cc1c(-c2ccc(OCC[18F])cc2)nn2c(C)cc(C)nc12` [[^18F]DPA-714], for which the “Non-metabolized parent compound as share of remaining radioactivity in the brain” value is recorded as “about 50%”. In the case of `CCN(CC)C(=O)Cc1c(-c2ccc([18F])cc2)nn2c(C)cc(C)nc12` [[^18F]F-DPA], the “Non-metabolized parent compound as share of remaining radioactivity in the brain” value is reported as “more than 90%”.
